Each structure is given as a SMILES string.

This experiment addresses T1, human TLR8 (Homo sapiens, UniProt Q9NR97).
T1 sequence (Q9NR97 27-1041): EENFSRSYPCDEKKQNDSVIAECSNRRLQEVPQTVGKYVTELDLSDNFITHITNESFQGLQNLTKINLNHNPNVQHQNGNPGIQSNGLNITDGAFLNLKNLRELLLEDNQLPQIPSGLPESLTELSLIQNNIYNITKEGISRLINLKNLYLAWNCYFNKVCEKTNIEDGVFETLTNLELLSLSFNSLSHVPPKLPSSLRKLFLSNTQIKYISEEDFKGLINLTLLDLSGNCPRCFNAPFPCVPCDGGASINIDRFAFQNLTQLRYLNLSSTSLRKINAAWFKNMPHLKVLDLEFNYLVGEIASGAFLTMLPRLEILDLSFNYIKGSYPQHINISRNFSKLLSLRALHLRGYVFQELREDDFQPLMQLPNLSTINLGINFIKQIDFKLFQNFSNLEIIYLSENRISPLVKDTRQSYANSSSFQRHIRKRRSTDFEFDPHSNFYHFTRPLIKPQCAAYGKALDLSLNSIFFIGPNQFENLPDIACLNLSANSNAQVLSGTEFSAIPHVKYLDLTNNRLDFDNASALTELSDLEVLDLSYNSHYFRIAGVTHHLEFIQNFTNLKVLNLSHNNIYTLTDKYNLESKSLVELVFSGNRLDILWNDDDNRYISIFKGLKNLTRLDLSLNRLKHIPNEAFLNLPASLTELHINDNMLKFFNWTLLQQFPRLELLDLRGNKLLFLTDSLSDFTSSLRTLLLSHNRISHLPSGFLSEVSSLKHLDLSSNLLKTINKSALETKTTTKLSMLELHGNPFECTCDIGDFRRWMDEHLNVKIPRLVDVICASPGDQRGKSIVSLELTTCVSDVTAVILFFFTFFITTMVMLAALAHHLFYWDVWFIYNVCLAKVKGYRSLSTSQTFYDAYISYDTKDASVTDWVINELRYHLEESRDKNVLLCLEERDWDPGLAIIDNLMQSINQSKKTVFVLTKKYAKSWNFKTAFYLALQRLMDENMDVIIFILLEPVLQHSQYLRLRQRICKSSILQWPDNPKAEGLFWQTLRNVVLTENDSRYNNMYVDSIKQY
Description: HEK293-Blue-hTLR-8 cells assay. The note with it: HEK293-Blue-hTLR8 cells, R848 stimulation, 20 hrs, SEAP reporter; read-out: HEK/hTLR8 IC50. Type of experiment: cell-based. The text has this:
HEK293-Blue-hTLR-8 cells assay:
A stable HEK293-Blue-hTLR-8 cell line was purchased from InvivoGen (Cat. #: hkb-htlr8, San Diego, California, USA). These cells were originally designed for studying the stimulation of human TLR8 by monitoring the activation of NF-κB. A SEAP (secreted embryonic alkaline phosphatase) reporter gene was placed under the control of the IFN-β minimal promoter fused to five NF-κB and AP-1-binding sites. The SEAP was induced by activating NF-κB and AP-1 via stimulating HEK-Blue hTLR8 cells with TLR8 ligands. Therefore the reporter expression was declined by TLR8 antagonist under the stimulation of a ligand, such as R848, for incubation of 20 hrs. The cell culture supernatant SEAP reporter activity was determined using QUANTI-Blue™kit (Cat. #: rep-qb1, Invivogen, San Diego, Ca, USA) at a wavelength of 640 nm, a detection medium that turns purple or blue in the presence of alkaline phosphatase.
HEK293-Blue-hTLR8 cells were incubated at a density of 250,000˜450,000 cells/mL in a volume of 170 μL in a 96-well plate in Dulbecco's Modified Eagle's medium (DMEM) containing 4.5 g/L glucose, 50 U/mL penicillin, […], […], 2 mM L-glutamine, 10% (v/v) heat-inactivated fetal bovine serum with addition of 20 μL test compound in a serial dilution in the presence of final DMSO at 1% and 10 μL of 60 uM R848 in above DMEM, perform incubation under 37° C. in a CO2 incubator for 20 hrs. Then 20 μL of the supernatant from each well was incubated with 180 μL Quanti-blue substrate solution at 37° C. for 2 hrs and the absorbance was read at 620-655 nm using a spectrophotometer. The signaling pathway that TLR8 activation leads to downstream NF-κB activation has been widely accepted, and therefore similar reporter assay was modified for evaluating TLR8 antagonist.
For the compound `C[C@@H]1CN(c2cc(=O)n(C)c3ncccc23)C[C@H](CN2CC3(C2)OCc2cc(N4CC(N)C4)ccc23)O1` [Example 13, 4-[(2S,6R)-2-[[6-(3-aminoazetidin-1-yl)spiro[1H-isobenzofuran-3,3′-azetidine]-1′-yl]methyl]-6-methyl-morpholin-4-yl]-1-methyl-1,8-naphthyridin-2-one], the IC50 came out at 0.409 µM.
On to `C[C@@H]1CN(c2ccc(C#N)n3nccc23)C[C@H](CN2CC3(C2)OCc2cc(N4CC5(CNCCO5)C4)ccc23)O1` [Example 7, 4-[(2R,6S)-2-methyl-6-[[6-(5-oxa-2,8-diazaspiro[3.5]nonan-2-yl)spiro[1H-isobenzofuran-3,3′-azetidine]-1′-yl]methyl]morpholin-4-yl]pyrazolo[1,5-a]pyridine-7-carbonitrile], for which the IC50 amounted to 0.058 µM.
Under `C[C@@H]1CN(c2ccc(C#N)n3ncc(F)c23)C[C@H](CN2CC3(C2)OCc2cc(N4CC(C)(N)C4)cnc23)O1` [Example 33, 4-[(2S,6R)-2-[[3-(3-amino-3-methyl-azetidin-1-yl)spiro[5H-furo[3,4-b]pyridine-7,3′-azetidine]-1′-yl]methyl]-6-methyl-morpholin-4-yl]-3-fluoro-pyrazolo[1,5-a]pyridine-7-carbonitrile] stands 0.024 µM; under `[2H]c1ccc2c(N3C[C@H](CN4CC5(C4)OCc4cc(N6CC(N)C6)ncc45)O[C@H](C)C3)ccc(C#N)c2n1` [Example 32, 5-[(2S,6R)-2-[[6-(3-aminoazetidin-1-yl)spiro[1H-furo[3,4-c]pyridine-3,3′-azetidine]-1′-yl]methyl]-6-methyl-morpholin-4-yl]-2-deuterio-quinoline-8-carbonitrile], 0.022 µM; under `C[C@@H]1CN(c2ccc(C#N)n3ncc(F)c23)C[C@H](CN2CC3(C2)OCc2cc(N4C[C@H](N)[C@@H](O)C4)ccc23)O1` [Example 10, 4-[(2S,6R)-2-[[6-[(3S,4S)-3-amino-4-hydroxy-pyrrolidin-1-yl]spiro[1H-isobenzofuran-3,3′-azetidine]-1′-yl]methyl]-6-methyl-morpholin-4-yl]-3-fluoro-pyrazolo[1,5-a]pyridine-7-carbonitrile], 0.142 µM.
Regarding `C[C@@H]1CN(c2ccc(C#N)n3nccc23)C[C@H](CN2CC3(C2)OCc2cc(N4CC(N)C4)ccc23)O1` [Example 19, 4-[(2S,6R)-2-[[6-(3-aminoazetidin-1-yl)spiro[1H-isobenzofuran-3,3′-azetidine]-1′-yl]methyl]-6-methyl-morpholin-4-yl]pyrazolo[1,5-a]pyridine-7-carbonitrile], the IC50 is 0.099 µM.
Take `C[C@@H]1CN(c2ccc(C#N)n3ncc(F)c23)C[C@H](CN2CC3(C2)OCc2cc(N4CC(C)(N)C4)ccc23)O1` [Example 1, 4-[(2S,6R)-2-[[6-(3-amino-3-methyl-azetidin-1-yl)spiro[1H-isobenzofuran-3,3′-azetidine]-1′-yl]methyl]-6-methyl-morpholin-4-yl]-3-fluoro-pyrazolo[1,5-a]pyridine-7-carbonitrile]: the IC50 turned out to be 0.082 µM.
Regarding `[2H]c1ccc2c(N3C[C@H](CN4CC5(C4)OCc4cc(N6C[C@@H](N)[C@H](OC)C6)ccc45)O[C@H](C)C3)ccc(C#N)c2n1` [Example 16, 5-[(2S,6R)-2-[[6-[(3R,4R)-3-amino-4-methoxy-pyrrolidin-1-yl]spiro[1H-isobenzofuran-3,3′-azetidine]-1′-yl]methyl]-6-methyl-morpholin-4-yl]-2-deuterio-quinoline-8-carbonitrile], the IC50 turned out to be 0.013 µM.
For `C[C@@H]1CN(c2ccc(C#N)n3ncc(F)c23)C[C@H](CN2CC3(C2)OCc2cc(N4CC[C@](C)(N)C4)ccc23)O1` [Example 5, 4-[(2S,6R)-2-[[6-[(3S)-3-amino-3-methyl-pyrrolidin-1-yl]spiro[1H-isobenzofuran-3,3′-azetidine]-1′-yl]methyl]-6-methyl-morpholin-4-yl]-3-fluoro-pyrazolo[1,5-a]pyridine-7-carbonitrile] the value was 0.022 µM.

The values above are taken from patent US12421252B2, “Spiro (isobenzofuranazetidine) compounds for the treatment of autoimmune disease” (Hoffmann-La Roche Inc., priority 2020, dated 2025).
